Values quoted from earlier work as cited in patent US20260248729A1, “NOVEL ORAL DOSAGE FORM” (Neon Healthcare Ltd, priority 2022, published 2026).

[1] = administered orally in the form of phenelzine sulfate

Time to peak plasma concentration [1]: 43 min
half-life [1]: 11.6 h
major metabolites phenylacetic acid and parahydroxyphenylacetic acid recovered, of the excreted dose of phenelzine in the urine (over the course of 96 hours after single doses): about 73%
SMILES: NNCCc1ccccc1 [Phenelzine, 2-phenylethylhydrazine]
